Data: patent publication EP0428104A2, “Treatment of multi-drug resistant tumors with pyridyloxazole-2-ones” (MERRELL DOW PHARMACEUTICALS INC., priority 1989, dated 1991)

System: CHO^R cells
Test: Reversal of multidrug resistance: cell growth in vinblastine resistant tumor cell line, cell number by Coulter counter
Assay type: cell-based
Details: 72 hr
Experimental: CHO^R cells were plated at a density of 1X10⁵/35mm dish and were allowed to grow overnight at 37°C in a CO₂ incubator. The medium was replaced with medium containing the compounds and vinblastine (0.2 µg/ml). The cells were allowed to grow for further 72 hr and the cell number was determined by Coulter counter after trypsinization. […]

Structure (SMILES) | effect on cell growth (VLB alone at 0.2 µg/ml) | % Inhibition of Cell Growth Compound + VLB (compound 0.1 µg/ml plus vinblastine 0.2 µg/ml) | inhibition at 0.1 µg/mL (compound 0.1 µg/ml, without VLB, read-out: % Inhibition of Cell Growth Compound Only) | % Inhibition of Cell Growth Compound + VLB (compound 1 µg/ml plus vinblastine 0.2 µg/ml) | inhibition at 1 µg/mL (compound 1 µg/ml, without VLB, read-out: % Inhibition of Cell Growth Compound Only) | % Inhibition of Cell Growth Compound + VLB (compound 10 µg/ml plus vinblastine 0.2 µg/ml) | inhibition at 10 µg/mL (compound 10 µg/ml, without VLB, read-out: % Inhibition of Cell Growth Compound Only)
CC[C@]1(O)C[C@@H]2CN(CCc3c([nH]c4ccccc34)[C@@](C(=O)OC)(c3cc4c(cc3OC)N(C)[C@H]3[C@@](O)(C(=O)OC)[C@H](OC(C)=O)[C@]5(CC)C=CCN6CC[C@]43[C@@H]65)C2)C1 [VLB, vinblastine, reference compound] | did not have any effect on cell growth |  |  |  |  |  | 
CCCc1[nH]c(=O)oc1-c1ccncc1 [4-PROPYL-5(4-PYRIDINYL)-2(3H)-OXAZOLONE, 4-propyl-5-(4-pyridinyl)-2(3H)-oxazolone] |  | 6% | 0% | 22% | 0% | 82% | 55%
